IC50 and Activity data for 7 compounds are collected here from ChEMBL document CHEMBL1142427, “Cytotoxic triterpenoid saponins acylated with monoterpenic acid from Pithecellobium lucidum” (J Nat Prod, 2008).

The test system of series [1] is Bel-7402. Description: Cytotoxicity against human Bel7402 cells after 96 hrs by MTT assay. As to conditions: Bel-7402, 96 h. The class given is functional, cell-based. In general terms: Tetrazolium dyes change colour on reduction, which living cells bring about.
The test system of series [2] is HCT-8. The series is described as follows: Cytotoxicity against human HCT8 cells after 96 hrs by MTT assay. Conditions: HCT-8, 96 h. It counts as functional, cell-based.
Series [3] concerns A2780. Description: Cytotoxicity against human A2780 cells after 96 hrs by MTT assay. It counts as functional, cell-based. As to conditions: A2780, 96 h.
For series [4], the system named is A549. The series is described as follows: Cytotoxicity against human A549 cells after 96 hrs by MTT assay. It counts as functional, cell-based. Conditions: A549, 96 h.
The nature of series [5]: Toxicity in rabbit erythrocytes assessed as hemolysis at 0.01 uM to 100 uM. The class given is cell-based, Oryctolagus cuniculus. Conditions: erythrocyte.
The test system of series [6] is BGC-823. The series is described as follows: Cytotoxicity against human BGC823 cells after 96 hrs by MTT assay. Conditions: BGC-823, 96 h. The class given is functional, cell-based.

As a reminder, the IC50 is the concentration that inhibits the measured activity by half. Read a high IC50 as a need for much substance. Consider `C[C@H]1O[C@@H](OC[C@H]2O[C@@H](O[C@H]3CC[C@]4(C)[C@H]5CC=C6[C@@H]7CC(C)(C)[C@@H](O)C[C@]7(C(=O)O)[C@H](O)C[C@@]6(C)[C@]5(C)CC[C@H]4C3(C)C)[C@H](O)[C@@H](O)[C@@H]2O)[C@H](O[C@@H]2OC[C@@H](O)[C@H](O)[C@H]2O)[C@@H](O)[C@H]1O`, for which the IC50 in series [1], in series [2], in series [3], in series [4] and in series [6] was over 10 µM throughout. Moreover, the Activity entry in series [5] was “Non-toxic”.
With `C=C[C@@](C)(CC/C=C(\CO)C(=O)O[C@H]1C[C@]2(C(=O)O[C@@H]3O[C@H](CO)[C@@H](O)[C@H](O)[C@H]3O[C@@H]3O[C@@H](C)[C@H](O[C@@H]4O[C@@H](CO)[C@H](O)[C@H]4O)[C@@H](O[C@@H]4O[C@H](CO)[C@@H](O)[C@H](O)[C@H]4O)[C@H]3O)[C@H](O)C[C@]3(C)C(=CC[C@@H]4[C@@]5(C)CC[C@H](O[C@@H]6O[C@H](CO[C@@H]7O[C@H](C)[C@H](O)[C@H](O)[C@H]7O[C@@H]7OC[C@@H](O)[C@H](O)[C@H]7O)[C@@H](O)[C@H](O)[C@H]6O)C(C)(C)[C@@H]5CC[C@]43C)[C@@H]2CC1(C)C)O[C@@H]1O[C@H](C)[C@@H](O)[C@H](O)[C@H]1O`, the IC50 is over 10 µM in series [1]; 1.5 µM in series [2]; 1.35 µM in series [3]; over 10 µM in series [4]; over 10 µM in series [6]. Also, the Activity entry in series [5] is “Non-toxic”.
Turning to `CC[C@@]1(O)C(=O)OCc2c1cc1n(c2=O)Cc2cc3ccccc3nc2-1` [CAMPTOTHECIN], the IC50 in series [1] turned out to be 12.5 µM; in series [2], 3.15 µM; in series [3], 0.28 µM; in series [4], 3.12 µM; in series [6] it was 9.67 µM.
Turning to `C=C[C@@](C)(CC/C=C(\CO)C(=O)O[C@H]1C[C@]2(C(=O)O[C@@H]3O[C@H](CO)[C@@H](O)[C@H](O)[C@H]3O[C@@H]3O[C@@H](C)[C@H](O[C@@H]4O[C@@H](CO)[C@H](O)[C@H]4O)[C@@H](O[C@@H]4O[C@H](CO)[C@@H](O)[C@H](O)[C@H]4O)[C@H]3O)[C@H](O)C[C@]3(C)C(=CC[C@@H]4[C@@]5(C)CC[C@H](O[C@@H]6O[C@H](CO[C@@H]7O[C@H](C)[C@H](O)[C@H](O)[C@H]7O[C@@H]7OC[C@@H](O)[C@H](O)[C@H]7O)[C@@H](O)[C@H](O)[C@H]6NC(C)=O)C(C)(C)[C@@H]5CC[C@]43C)[C@@H]2CC1(C)C)O[C@@H]1O[C@H](C)[C@@H](O)[C@H](O)[C@H]1O` [JULIBROSIDE J29], the IC50 in series [1] was found to be 1.65 µM; in series [2], 1.5 µM; in series [3], 0.61 µM; in series [4], 1.8 µM; in series [6] it was 1.9 µM. Moreover, the Activity result in series [5] was “Non-toxic”.
With `C=C[C@@](C)(CC/C=C(\CO)C(=O)O[C@H]1C[C@]2(C(=O)O[C@@H]3O[C@H](CO)[C@@H](O)[C@H](O)[C@H]3O[C@@H]3O[C@@H](C)[C@H](O[C@@H]4O[C@@H](CO)[C@H](O)[C@H]4O)[C@@H](O[C@@H]4O[C@H](C)[C@@H](O)[C@H](O)[C@H]4O)[C@H]3O)[C@H](O)C[C@]3(C)C(=CC[C@@H]4[C@@]5(C)CC[C@H](O[C@@H]6O[C@H](CO[C@@H]7O[C@H](C)[C@H](O)[C@H](O)[C@H]7O[C@@H]7OC[C@@H](O)[C@H](O)[C@H]7O)[C@@H](O)[C@H](O)[C@H]6O)C(C)(C)[C@@H]5CC[C@]43C)[C@@H]2CC1(C)C)O[C@@H]1O[C@H](C)[C@@H](O)[C@H](O)[C@H]1O` [PITHELUCOSIDE A], the IC50 in series [1], in series [2], in series [3], in series [4] and in series [6] was over 10 µM in each case. Besides, the Activity result in series [5] is on record as “Non-toxic”.
For the compound `C=C[C@](C)(O)CC/C=C(\CO)C(=O)O[C@H]1C[C@]2(C(=O)O[C@@H]3O[C@H](CO)[C@@H](O)[C@H](O)[C@H]3O[C@@H]3O[C@@H](C)[C@H](O[C@@H]4O[C@@H](CO)[C@H](O)[C@H]4O)[C@@H](O[C@@H]4O[C@H](CO)[C@@H](O)[C@H](O)[C@H]4O)[C@H]3O)[C@H](O)C[C@]3(C)C(=CC[C@@H]4[C@@]5(C)CC[C@H](O[C@@H]6O[C@H](CO[C@@H]7O[C@H](C)[C@H](O)[C@H](O)[C@H]7O[C@@H]7OC[C@@H](O)[C@H](O)[C@H]7O)[C@@H](O)[C@H](O)[C@H]6O)C(C)(C)[C@@H]5CC[C@]43C)[C@@H]2CC1(C)C` [PITHELUCOSIDE B], the IC50 in series [1] is 2.54 µM; in series [2], over 10 µM; in series [3], 1.23 µM; in series [4], over 10 µM; in series [6] it was over 10 µM. Also, the Activity entry in series [5] is on record as “Non-toxic”.
For the compound `C/C(=C\CO)CC/C=C(\CO)C(=O)O[C@H]1C[C@]2(C(=O)O[C@@H]3O[C@H](CO)[C@@H](O)[C@H](O)[C@H]3O[C@@H]3O[C@@H](C)[C@H](O[C@@H]4O[C@@H](CO)[C@H](O)[C@H]4O)[C@@H](O[C@@H]4O[C@H](CO)[C@@H](O)[C@H](O)[C@H]4O)[C@H]3O)[C@H](O)C[C@]3(C)C(=CC[C@@H]4[C@@]5(C)CC[C@H](O[C@@H]6O[C@H](CO[C@@H]7O[C@H](C)[C@H](O)[C@H](O)[C@H]7O[C@@H]7OC[C@@H](O)[C@H](O)[C@H]7O)[C@@H](O)[C@H](O)[C@H]6O)C(C)(C)[C@@H]5CC[C@]43C)[C@@H]2CC1(C)C` [PITHELUCOSIDE C], the IC50 is 7.56 µM in series [1]; 4.24 µM in series [2]; 1.66 µM in series [3]; over 10 µM in series [4]; over 10 µM in series [6]. The Activity result in series [5] was “Non-toxic”.
